From article PMC9469095, “Toolkit of Approaches To Support Target-Focused Drug Discovery for Plasmodium falciparum Lysyl tRNA Synthetase” (ACS Infectious Diseases, 2022)

Key:
[1] = molecular target: T1, PfKRS (cytosolic lysyl tRNA synthetase) (Plasmodium falciparum, UniProt Q8IDJ8); assay: biochemical; set-up: PfKRS lysine activation, pyrophosphate release with BIOMOL Green absorbance at 650 nm; details: read-out: PfKRS pIC50 (converted)
T1 construct: gene PF3D7_1350100
Description: (§1) PfKRS assay wells contained PfKRS assay buffer (100 mM Hepes; pH 7.4, 100 mM NaCl, 20 mM MgCl2, 0.01% (v/v) Igepal and 1 mM DTT) plus 20 nM PfKRS, 200 μM ATP, 400 μM L-lysine, and 0.5 U/mL pyrophosphatase. HsKRS reactions contained HsKRS assay buffer (30 mM Tris; pH 8, 140 mM NaCl, 40 mM MgCl2, 30 mM KCl, 0.01% (v/v) Brij and 1 mM DTT) plus 400 nM HsKRS, 3.5 μM ATP, 6 μM L-lysine, and 0.5 U/mL pyrophosphatase. Assays were performed by adding 25 μL of assay buffer with enzyme to all assay wells, before the reaction was initiated with the addition of a 25 μL substrate mixture containing L-lysine, ATP, and pyrophosphatase (a substrate mix with L-lysine omitted was added to “no lysine” control wells on each assay plate). Following a 6 h (PfKRS) or 3 h (HsKRS) reaction at RT, the assay was stopped with the addition of 50 μL BIOMOL Green. The BIOMOL Green signal was allowed to develop for 30 min before the absorbance of each well was read at 650 nm using an EnVision multilabel plate reader (PerkinElmer Life Sciences) or a PheraStar plate reader (BMG). All [compound left out] dispensing steps were carried out using a Thermo Scientific WellMate dispenser (Matrix). To generate pIC50 data for hit compounds in the PfKRS or HsKRS assays, 10-point inhibitor dose–response curves were prepared in 384-well assay plates using an ECHO 550 acoustic dispenser (Labcyte). Following preparation of the inhibitor curves, assays were carried out as described above. ActivityBase from IDBS (version 8.0.5.4) was used for data processing and analysis, with percentage inhibition values determined relative to 100% inhibition (“no-lysine” control) and 0% inhibition control wells on each plate. All IC50 curve fitting was undertaken using ActivityBase XE (version 7.7.1) from IDBS. A four-parameter logistic dose–response curve was utilized (XLfit model 203) with prefit used for all four parameters.
Target sequence in this assay (Q8IDJ8 1-583): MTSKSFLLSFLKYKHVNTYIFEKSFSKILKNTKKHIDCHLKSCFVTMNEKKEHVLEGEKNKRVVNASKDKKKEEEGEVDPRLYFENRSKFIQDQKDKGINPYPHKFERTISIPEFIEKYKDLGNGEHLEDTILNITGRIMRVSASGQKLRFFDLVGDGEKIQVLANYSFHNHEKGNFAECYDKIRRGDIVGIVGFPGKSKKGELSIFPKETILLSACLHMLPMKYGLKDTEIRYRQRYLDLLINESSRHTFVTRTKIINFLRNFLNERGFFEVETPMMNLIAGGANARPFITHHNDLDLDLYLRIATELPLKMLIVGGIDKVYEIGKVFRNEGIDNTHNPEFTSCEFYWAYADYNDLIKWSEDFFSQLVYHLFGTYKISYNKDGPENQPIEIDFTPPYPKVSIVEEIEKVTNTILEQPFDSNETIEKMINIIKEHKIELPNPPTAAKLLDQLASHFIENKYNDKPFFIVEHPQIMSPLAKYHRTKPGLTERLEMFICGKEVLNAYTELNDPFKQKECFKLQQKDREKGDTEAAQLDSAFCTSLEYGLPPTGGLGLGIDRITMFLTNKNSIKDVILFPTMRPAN

HsKRS = molecular target: T2, HsKRS (Homo sapiens, UniProt Q15046); assay: biochemical; set-up: HsKRS lysine activation, pyrophosphate release with BIOMOL Green absorbance at 650 nm; details: read-out: HsKRS pIC50 (converted)
T2 construct: gene KARS1
Description: as §1

[2] = molecular target: T1, PfKRS (cytosolic lysyl tRNA synthetase); assay: isothermal thermal proteome profiling at […] °C in P. falciparum lysate; assay type: cell-based
Target sequence in this assay (Q8IDJ8 entry or part of it): as the sequence (Q8IDJ8 1-583) above

T2 sequence (Q15046 whole entry): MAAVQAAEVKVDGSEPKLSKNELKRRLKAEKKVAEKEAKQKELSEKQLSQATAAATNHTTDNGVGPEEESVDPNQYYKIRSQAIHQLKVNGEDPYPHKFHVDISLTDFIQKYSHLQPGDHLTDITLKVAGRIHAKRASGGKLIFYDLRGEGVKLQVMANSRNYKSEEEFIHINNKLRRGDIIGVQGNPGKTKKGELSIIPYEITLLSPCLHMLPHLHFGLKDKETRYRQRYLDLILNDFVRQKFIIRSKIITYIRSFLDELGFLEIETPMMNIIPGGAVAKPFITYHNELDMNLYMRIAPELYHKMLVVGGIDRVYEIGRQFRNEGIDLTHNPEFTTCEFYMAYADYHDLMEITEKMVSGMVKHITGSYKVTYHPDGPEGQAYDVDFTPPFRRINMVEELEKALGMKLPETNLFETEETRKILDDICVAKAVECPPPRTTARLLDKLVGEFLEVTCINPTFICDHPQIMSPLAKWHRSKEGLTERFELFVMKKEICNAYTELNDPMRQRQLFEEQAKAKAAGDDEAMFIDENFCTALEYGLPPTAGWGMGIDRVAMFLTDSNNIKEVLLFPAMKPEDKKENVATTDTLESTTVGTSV

Row | Structure (SMILES) | IC50 [1] | IC50 (HsKRS) | isothermal thermal proteome profiling at 57 °C in P. falciparum lysate [2]
1 | [N-]=[N+]=NCCOCCOCCOCCNC(=O)c1ccc(S(=O)(=O)Nc2cc(F)cc3c(=O)cc(C(=O)NCC4CCCCC4)oc23)cc1 [linker 1] | 22.4 nM | 43700 nM | –
2 | O=C(NCC1(O)CCC(F)(F)CC1)c1cc(=O)c2cc(F)ccc2o1 [DDD01510706] | 240 nM | 20000 nM | –
3 | C[C@H]1CCC[C@H](C[C@H]2Cc3cc(O)cc(O)c3C(=O)O2)O1 [cladosporin] | 47.9 nM | > 100000 nM | The relative abundance of PfKRS was also significantly increased in lysates exposed to cladosporin
4 | O=C(NCC1CCCCC1)c1cc(=O)c2cc(F)cc(NS(=O)(=O)c3ccccc3)c2o1 [DDD02354914] | 11.7 nM | 6310 nM | –
